In article PMC3542062, “A phenyl-thiadiazolylidene-amine derivative ejects zinc from retroviral nucleocapsid zinc fingers and inactivates HIV virions” (Retrovirology, 2012):

Key:
AZTR HIV-1 strain = assay: GFP-assay in Jurkat A72 (LTR-GFP) cells; assay type: cell-based; settings: Human immunodeficiency virus 1, Jurkat, 72 h, read-out: EC50 AZTR
HIV-2 ROD [1] = assay: MT-4/MTT-assay, protection against virus-induced cytopathic effect; assay type: cell-based; settings: Human immunodeficiency virus 2, MT4, 120 h; MT-4 cells, MTT, 5 days after infection
HIV-2 ROD [2] = assay: Virucidal assay: virus pre-incubated with compound, diluted, titrated on MT-4 cells; settings: for CCID50/ml HIV-2 ROD: no drug 5.4 × 10^6
NL4.3/WT = assay: GFP-assay in Jurkat A72 (LTR-GFP) cells; assay type: cell-based, HIV-1; settings: Human immunodeficiency virus 1, Jurkat, 72 h, read-out: EC50 NL4.3/WT
BCF-Dioum subtype G = assay: Virucidal assay on clinical isolates, titration on PBMCs; assay type: cell-based, HIV-1; settings: 125 μM, 1 h 37°C, untreated control 25781
[3] = Cytostatic activity, CEM cell proliferation; assay type: cell-based, human; settings: human, CEM T-lymphocyte cells
HIV-1 IIIB [4] = assay: MT-4/MTT-assay, protection against virus-induced cytopathic effect; assay type: cell-based; settings: MT-4 cells, MTT, 5 days after infection
NL4.3/DS5000R = assay: GFP-assay in Jurkat A72 (LTR-GFP) cells; assay type: cell-based, HIV-1; settings: Human immunodeficiency virus 1, Jurkat, 72 h, read-out: EC50 NL4.3/DS5000R
[5] = Cytotoxicity in mock-infected MT-4 cells (MTT); assay type: cell-based; settings: human, mock-infected MT-4 cells
[6] = MTT-based viability assay in Jurkat cells; settings: human
NCp7(11-55) = assay: Zinc ejection monitored by Trp37 intrinsic fluorescence; assay type: biochemical, HIV-1
Description: Ejection of 50% of the zinc is observed in less than 5 minutes (Figure 4C).
As a reference, NCp7(11-55) was treated with 1 mM EDTA, a well known zinc chelator (triangle). […] (B) Time-dependent zinc ejection from NCp7(11-55). […] The data points (stars) corresponded to the fluorescence intensity at the maximum emission wavelength from panel B. Solid line represents a double-exponential fit to the data. (D) Zinc ejection from NCp7(11-55) in the presence of an excess of zinc. Emission spectra of the NCp7(11-55) (1 μM) in the presence of an excess of 100 μM zinc (triangle). […] The emission spectrum of NCp7(11-55) incubated with 1 mM EDTA (triangle) for one hour is given as a reference.
The NC(11-55) peptide was synthesized by solid phase peptide synthesis on a 433A synthesizer (ABI, Foster City, CA), as previously described. The lyophilized peptide was dissolved in water, and its concentration was determined using an extinction coefficient of 5,700 M^–1 x cm^–1 at 280 nm. Next, 2.5 molar equivalents of ZnSO4 were added to the peptide and pH was raised to its final value, by adding buffer. The increase of pH was done only after zinc addition to avoid oxidization of the zinc-free peptide.
Absorption spectra were recorded on a Cary 400 spectrophotometer. Fluorescence spectra were recorded at 20°C on a Fluorolog spectrofluorometer (Horiba, Jobin-Yvon), equipped with a thermostated cell compartment. Excitation wavelength was 295 nm and 520 nm, for NC(11-55) and Rh6G-5^′-cTAR-3^′-Dabcyl, respectively. The spectra were corrected for dilution and buffer fluorescence. The protein spectra were additionally corrected for screening effects due to the zinc ejecting agent, using: […]

RSV = assay: Activity against replication of non-retroviruses; assay type: cell-based
HIV-1 virus particles = assay: Virion-associated p24 of pre-treated, compound-cleared virus (ELISA); settings: compound-cleared HIV-1 virus stock
HIV-2 ROD [7] = assay: GFP-assay in Jurkat A72 (LTR-GFP) cells; assay type: cell-based; settings: Human immunodeficiency virus 2, 72 h, 3 days after infection
BZ163 subtype F = assay: Virucidal assay on clinical isolates, titration on PBMCs; assay type: cell-based, HIV-1; settings: 125 μM, 1 h 37°C, untreated control 16242
CMV = assay: Activity against replication of non-retroviruses; assay type: cell-based
HIV-2 ROD [8] = assay: Anti-HIV activity in CEM cells (cytopathogenicity); assay type: cell-based; settings: Human immunodeficiency virus 2, CCRF-CEM
HIV-1 IIIB [9] = assay: Virucidal assay: virus pre-incubated with compound, diluted, titrated on MT-4 cells; settings: for CCID50/ml HIV-1 IIIB: no drug 1 × 10^6
NC(11-55) = assay: Inhibition of NC(11-55)-induced destabilization of cTAR (Rh6G-cTAR-Dabcyl fluorescence); assay type: biochemical, HIV-1
Description: The NCp7-induced destabilization of cTAR can be sensitively monitored by using the doubly labeled Rh6G-5^′-cTAR-3^′-Dabcyl derivative.
(A) Emission spectra of Rh6G-cTAR-Dabcyl (0.1 μM) recorded in the absence (circle) or in the presence of NCp7(11-55) (1 μM) (square). […] Excitation wavelength was 520 nm. […] Excitation wavelength was 520 nm.
An extinction coefficient at 260 nm of 521,910 M^–1 x cm^–1 was used for cTAR. All experiments were performed at 20°C in 25 mM Tris–HCl, pH 7.5, 30 mM NaCl, and 0.2 mM MgCl2[28].

NL4.3/AMD3100R = assay: microbe, parasite or virus in culture; assay type: cell-based, HIV-1; settings: Human immunodeficiency virus 1, Jurkat, 72 h, read-out: EC50 NL4.3/AMD3100R
VZV = assay: Activity against replication of non-retroviruses; assay type: cell-based
UG270 subtype D = assay: Virucidal assay on clinical isolates, titration on PBMCs; assay type: cell-based, HIV-1; settings: 125 μM, 1 h 37°C, untreated control 25781
SIV Mac251 = assay: MT-4/MTT-assay, protection against virus-induced cytopathic effect; assay type: cell-based; settings: MT-4 cells, MTT, 5 days after infection
VSV = assay type: cell-based
[10] = virus incubated 1 h 37°C with 0.2 μM
[11] = virus incubated 1 h 37°C with 1 μM
[12] = virus incubated 1 h 37°C with 5 μM
[13] = virus incubated 1 h 37°C with 25 μM
[14] = virus incubated 1 h 37°C with 625 μM
[15] = virus incubated at 26, 130 and 650 μM, 1 h 37°C
[16] = 10 μM compound, 1 μM NCp7(11-55)
[17] = 10 μM compound, 1 μM NC(11-55), 0.1 μM cTAR

**Q.** For `Cn1sc(=N)nc1-c1ccccc1` [WDO-217, 2-methyl-3-phenyl-2H-[1,2,4]thiadiazol-5-ylideneamine], which EC50 (AZTR HIV-1 strain) is on record?
**A.** The EC50 was 1.5 ± 0.6 µM.

**Q.** And the EC50 (HIV-2 ROD [1])?
**A.** The EC50 was 2.3 ± 0.3 µM.

**Q.** What about the “CCID50/ml HIV-2 ROD” value (HIV-2 ROD [2]; [10]) of the same molecule?
**A.** Its value is 1.6 × 10^6 CCID50/ml.

**Q.** What about the “CCID50/ml HIV-2 ROD” value (HIV-2 ROD [2]; [11]) of the same molecule?
**A.** Its value is 1 × 10^6 CCID50/ml.

**Q.** And the “CCID50/ml HIV-2 ROD” value (HIV-2 ROD [2]; [12])?
**A.** The value was 2.1 × 10^6 CCID50/ml.

**Q.** And the “CCID50/ml HIV-2 ROD” value (HIV-2 ROD [2]; [13])?
**A.** The value was 0 CCID50/ml.

**Q.** And the “CCID50/ml HIV-2 ROD” value (HIV-2 ROD [2]; [14])?
**A.** The value was 0 CCID50/ml.

**Q.** And the “Infectivity of pre-incubated HIV-2 virus” value (HIV-2 ROD [2]; [15])?
**A.** Its value is “no longer able to infect cells”.

**Q.** What about the EC50 (NL4.3/WT) of the same molecule?
**A.** The EC50 was 0.9 ± 0.05 µM.

**Q.** And the “CCID50/ml BCF-Dioum subtype G” value (BCF-Dioum subtype G)?
**A.** The value was 2558 CCID50/ml.

**Q.** What about the CC50 [3] of the same molecule?
**A.** Its CC50 is 94 ± 15 µM.

**Q.** What about the EC50 (HIV-1 IIIB [4]; Human immunodeficiency virus 1, IIIB, MT4, 120 h) of the same molecule?
**A.** The EC50 was 5 ± 3 µM.

**Q.** What about the EC50 (HIV-1 IIIB [4]) of the same molecule?
**A.** Its EC50 is 7.9 ± 3.3 µM.

**Q.** And the EC50 (NL4.3/DS5000R)?
**A.** Its EC50 is 1.2 ± 0.1 µM.

**Q.** And the CC50 at 5 days [5]?
**A.** Its CC50 at 5 days is about 72 µM.

**Q.** What about the CC50 [6] of the same molecule?
**A.** The CC50 was 75 ± 11 µM.

**Q.** And the “time to complete zinc ejection” value (NCp7(11-55); [16])?
**A.** The value was 35 min.

**Q.** And the “time to ejection of 50% of the zinc” value (NCp7(11-55); [16])?
**A.** Its value is “less than 5 minutes”.

**Q.** What about the “zinc ejection (decrease of Trp37 fluorescence, same as 1 mM EDTA)” value (NCp7(11-55); 10-fold excess (10 μM), 1 h pre-incubation) of the same molecule?
**A.** The value was “efficiently ejects zinc”.

**Q.** What about the “activity against replication of RSV” value (RSV) of the same molecule?
**A.** Its value is “inactive”.

**Q.** What about the “virus-associated p24 core protein after treatment” value (HIV-1 virus particles) of the same molecule?
**A.** Its value is “did not affect”.

**Q.** What about the EC50 (HIV-2 ROD [7]) of the same molecule?
**A.** Its EC50 is 1.04 ± 0.3 µM.

**Q.** And the “CCID50/ml BZ163 subtype F” value (BZ163 subtype F)?
**A.** Its value is 2558 CCID50/ml.

**Q.** What about the “activity against replication of CMV” value (CMV) of the same molecule?
**A.** Its value is “inactive”.

**Q.** What about the EC50 (HIV-2 ROD [8]) of the same molecule?
**A.** The EC50 was 15 ± 6.7 µM.

**Q.** And the “CCID50/ml HIV-1 IIIB” value (HIV-1 IIIB [9]; [10])?
**A.** Its value is 5.4 × 10^6 CCID50/ml.

**Q.** What about the “CCID50/ml HIV-1 IIIB” value (HIV-1 IIIB [9]; [11]) of the same molecule?
**A.** The value was 1.6 × 10^6 CCID50/ml.

**Q.** And the “CCID50/ml HIV-1 IIIB” value (HIV-1 IIIB [9]; [12])?
**A.** The value was 1 × 10^6 CCID50/ml.

**Q.** And the “CCID50/ml HIV-1 IIIB” value (HIV-1 IIIB [9]; [13])?
**A.** The value was 0 CCID50/ml.

**Q.** And the “CCID50/ml HIV-1 IIIB” value (HIV-1 IIIB [9]; [14])?
**A.** The value was 0 CCID50/ml.

**Q.** What about the “Infectivity of pre-incubated HIV-1 virus” value (HIV-1 IIIB [9]; [15]) of the same molecule?
**A.** Its value is “no longer able to infect cells”.

**Q.** What about the “time to 50% inhibition of NC(11-55)-induced cTAR destabilization” value (NC(11-55); [17]) of the same molecule?
**A.** The value was “less than 5 minutes”.

**Q.** And the “time to complete inhibition of NC(11-55)-induced cTAR destabilization” value (NC(11-55); [17])?
**A.** Its value is 50 min.

**Q.** What about the “NC(11-55) ability to destabilize cTAR after preincubation” value (NC(11-55); molar ratio 10:1 compound to NC(11-55)) of the same molecule?
**A.** The value was “full loss”.

**Q.** And the EC50 (NL4.3/AMD3100R)?
**A.** Its EC50 is 1.7 ± 0.9 µM.

**Q.** What about the “activity against replication of VZV” value (VZV) of the same molecule?
**A.** The value was “inactive”.

**Q.** What about the “CCID50/ml UG270 subtype D” value (UG270 subtype D) of the same molecule?
**A.** The value was 6446 CCID50/ml.

**Q.** What about the EC50 (SIV Mac251) of the same molecule?
**A.** Its EC50 is 5.3 ± 1.5 µM.

**Q.** What about the EC50 (SIV Mac251; Simian immunodeficiency virus, MT4, 120 h) of the same molecule?
**A.** Its EC50 is 5 ± 1 µM.

**Q.** What about the “activity against replication of VSV” value (VSV) of the same molecule?
**A.** The value was “inactive”.
